Drawing on ChEMBL document CHEMBL2203044, “Discovery of di-indolinone as a novel scaffold for protein tyrosine phosphatase 1B inhibitors” (Bioorg Med Chem Lett, 2012), this text covers inhibition and IC50 for 18 compounds.

Assay [1] deals with T1, Tyrosine-protein phosphatase non-receptor type 1 (Homo sapiens) (UniProt P18031).
T1 sequence (whole entry): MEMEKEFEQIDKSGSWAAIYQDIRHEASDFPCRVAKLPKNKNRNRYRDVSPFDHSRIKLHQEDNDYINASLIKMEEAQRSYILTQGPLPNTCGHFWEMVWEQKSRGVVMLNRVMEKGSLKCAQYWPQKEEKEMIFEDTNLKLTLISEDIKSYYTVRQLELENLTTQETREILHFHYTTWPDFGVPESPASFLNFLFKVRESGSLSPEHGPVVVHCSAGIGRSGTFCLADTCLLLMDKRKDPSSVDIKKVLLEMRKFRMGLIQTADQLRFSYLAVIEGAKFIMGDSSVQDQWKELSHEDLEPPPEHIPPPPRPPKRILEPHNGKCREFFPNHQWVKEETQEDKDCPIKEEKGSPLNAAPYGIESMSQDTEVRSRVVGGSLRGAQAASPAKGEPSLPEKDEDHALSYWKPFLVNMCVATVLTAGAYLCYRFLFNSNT
The assay can be described thus: Inhibition of recombinant PTP1B using para-nitrophenylphosphate as substrate at 20 ug/mL by high throughput screening assay.

In assay [2] the target is T2, Tyrosine-protein phosphatase non-receptor type 1 (Homo sapiens, UniProt P18031).
T2 sequence (P18031 whole entry): T1 sequence (whole entry)
The assay can be described thus: Inhibition of recombinant PTP1B using para-nitrophenylphosphate as substrate by high throughput screening assay.

Assay [3] addresses T3, Tyrosine-protein phosphatase non-receptor type 2 (Homo sapiens, UniProt P17706).
T3 sequence (P17706 whole entry): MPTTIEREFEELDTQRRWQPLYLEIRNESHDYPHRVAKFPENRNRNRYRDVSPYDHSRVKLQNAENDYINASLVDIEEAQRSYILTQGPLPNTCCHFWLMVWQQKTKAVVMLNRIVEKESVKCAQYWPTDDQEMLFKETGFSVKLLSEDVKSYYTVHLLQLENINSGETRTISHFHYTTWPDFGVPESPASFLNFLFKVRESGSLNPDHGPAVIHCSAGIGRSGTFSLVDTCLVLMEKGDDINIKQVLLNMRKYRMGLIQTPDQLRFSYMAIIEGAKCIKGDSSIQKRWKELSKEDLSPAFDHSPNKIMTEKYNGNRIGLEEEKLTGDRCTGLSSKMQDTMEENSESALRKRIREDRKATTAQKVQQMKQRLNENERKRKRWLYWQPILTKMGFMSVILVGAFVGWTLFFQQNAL
The assay can be described thus: Inhibition of TCPTP.

Assay [4] has as its target Receptor-type tyrosine-protein phosphatase F (Homo sapiens, UniProt P10586). The assay can be described thus: Inhibition of LAR.
The target of assay [5] is Tyrosine-protein phosphatase non-receptor type 6 (Homo sapiens, UniProt P29350). The assay can be described thus: Inhibition of SHP-1.
Sequence of Tyrosine-protein phosphatase non-receptor type 6 (P29350 whole entry): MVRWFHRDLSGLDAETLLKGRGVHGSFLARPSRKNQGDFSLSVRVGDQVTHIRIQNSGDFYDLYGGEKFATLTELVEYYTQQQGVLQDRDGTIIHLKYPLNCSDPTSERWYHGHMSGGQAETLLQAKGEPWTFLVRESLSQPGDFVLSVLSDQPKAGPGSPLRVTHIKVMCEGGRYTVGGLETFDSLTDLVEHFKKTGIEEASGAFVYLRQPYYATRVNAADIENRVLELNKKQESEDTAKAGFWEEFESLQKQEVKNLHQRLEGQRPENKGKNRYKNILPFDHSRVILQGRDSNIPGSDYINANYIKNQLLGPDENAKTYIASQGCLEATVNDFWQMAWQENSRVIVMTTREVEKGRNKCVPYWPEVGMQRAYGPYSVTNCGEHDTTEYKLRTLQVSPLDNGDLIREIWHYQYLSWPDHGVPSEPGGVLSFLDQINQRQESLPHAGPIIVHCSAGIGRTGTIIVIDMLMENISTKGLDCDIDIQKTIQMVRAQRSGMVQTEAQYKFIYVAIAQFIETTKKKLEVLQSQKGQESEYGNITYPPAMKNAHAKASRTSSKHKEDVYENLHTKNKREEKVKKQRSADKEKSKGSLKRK

Sequence of Receptor-type tyrosine-protein phosphatase F (P10586 whole entry): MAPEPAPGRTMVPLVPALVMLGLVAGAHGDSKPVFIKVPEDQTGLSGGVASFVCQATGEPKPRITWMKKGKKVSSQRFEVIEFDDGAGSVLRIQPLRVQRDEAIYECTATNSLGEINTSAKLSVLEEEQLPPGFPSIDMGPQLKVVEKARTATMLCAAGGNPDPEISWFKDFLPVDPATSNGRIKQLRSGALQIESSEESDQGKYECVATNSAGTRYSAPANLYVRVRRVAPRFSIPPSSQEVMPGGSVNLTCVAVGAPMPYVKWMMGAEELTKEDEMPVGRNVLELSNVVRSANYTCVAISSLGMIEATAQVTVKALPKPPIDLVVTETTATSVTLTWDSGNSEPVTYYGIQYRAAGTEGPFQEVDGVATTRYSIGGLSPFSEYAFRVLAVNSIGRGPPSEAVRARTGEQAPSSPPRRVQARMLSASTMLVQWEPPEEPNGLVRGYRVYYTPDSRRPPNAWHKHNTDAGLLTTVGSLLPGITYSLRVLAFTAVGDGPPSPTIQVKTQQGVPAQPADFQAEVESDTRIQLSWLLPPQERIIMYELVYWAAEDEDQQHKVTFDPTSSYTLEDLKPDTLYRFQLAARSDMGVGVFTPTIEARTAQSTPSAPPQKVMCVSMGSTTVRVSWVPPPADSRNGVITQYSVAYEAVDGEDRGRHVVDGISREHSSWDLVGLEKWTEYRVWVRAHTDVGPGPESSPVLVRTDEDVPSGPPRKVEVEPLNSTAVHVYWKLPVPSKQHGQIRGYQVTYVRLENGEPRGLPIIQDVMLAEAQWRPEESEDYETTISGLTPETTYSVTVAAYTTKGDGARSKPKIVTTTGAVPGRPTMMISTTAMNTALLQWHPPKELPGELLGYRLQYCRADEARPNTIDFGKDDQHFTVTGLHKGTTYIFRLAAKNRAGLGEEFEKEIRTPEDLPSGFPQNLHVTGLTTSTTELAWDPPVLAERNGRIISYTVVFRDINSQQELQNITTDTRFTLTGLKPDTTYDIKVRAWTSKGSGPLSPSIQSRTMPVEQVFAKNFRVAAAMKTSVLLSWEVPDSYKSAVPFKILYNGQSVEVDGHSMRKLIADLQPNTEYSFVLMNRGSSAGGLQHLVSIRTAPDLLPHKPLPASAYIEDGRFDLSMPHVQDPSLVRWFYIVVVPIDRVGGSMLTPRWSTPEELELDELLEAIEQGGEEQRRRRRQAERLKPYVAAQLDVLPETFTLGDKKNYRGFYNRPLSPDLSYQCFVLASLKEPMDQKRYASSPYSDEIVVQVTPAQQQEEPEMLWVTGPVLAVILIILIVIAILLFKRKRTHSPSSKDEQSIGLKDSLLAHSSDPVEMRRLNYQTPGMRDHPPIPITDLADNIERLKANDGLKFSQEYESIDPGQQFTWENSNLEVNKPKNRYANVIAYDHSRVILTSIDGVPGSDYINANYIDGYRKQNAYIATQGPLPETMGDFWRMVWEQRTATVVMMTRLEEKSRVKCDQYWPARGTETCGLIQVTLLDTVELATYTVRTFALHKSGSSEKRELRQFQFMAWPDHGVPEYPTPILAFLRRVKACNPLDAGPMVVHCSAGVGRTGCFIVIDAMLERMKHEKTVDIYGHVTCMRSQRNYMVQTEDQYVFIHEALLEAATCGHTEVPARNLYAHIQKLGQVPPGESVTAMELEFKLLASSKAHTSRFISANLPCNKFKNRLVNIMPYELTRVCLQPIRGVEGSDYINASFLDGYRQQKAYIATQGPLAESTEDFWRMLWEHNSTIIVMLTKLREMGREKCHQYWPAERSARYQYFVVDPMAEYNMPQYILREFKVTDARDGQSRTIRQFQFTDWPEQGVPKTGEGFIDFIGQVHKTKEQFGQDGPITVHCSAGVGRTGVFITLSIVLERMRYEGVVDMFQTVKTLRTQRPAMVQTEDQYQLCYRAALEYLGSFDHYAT

`COC(=O)[C@@H]1CCCCN1Cc1ccc(/C=C2/C(=O)N(Cc3ccc(C=O)o3)c3ccc(F)cc32)o1`: in assay [1], the inhibition (as a rule, the change of the read-out against control, counted positive when it falls) is 55%.

As for `Cc1ccc2c(c1)C(=O)C(=O)N2Cc1ccc(/C=C2/C(=O)Nc3ccc(Cl)cc32)o1`, the 50% inhibitory concentration (IC50) – broadly, the point on the concentration scale where inhibition reaches its midpoint – in assay [2] was 3.46 µM.

As to `COC(=O)[C@@H]1CCCCN1Cc1ccc(/C=C2/C(=O)N(Cc3ccc(/C=C4/C(=O)Nc5ccccc54)o3)c3ccc(F)cc32)o1`, the inhibition in assay [1] was 75%.

For the compound `Cc1ccc2c(c1)C(=O)C(=O)N2Cc1ccc(C=O)o1`, the IC50 in assay [2] is > 60 µM.

On to `O=Cc1ccc(CN2C(=O)C(=O)c3ccccc32)o1`, for which, in assay [2], the 50% inhibitory concentration (IC50) is > 60 µM.

Consider `Cc1ccc2c(c1)/C(=C\c1ccc(CN3C(=O)C(=O)c4ccccc43)o1)C(=O)N2`, for which the IC50 in assay [2] was 9.82 µM.

Take `O=C1Nc2ccc(Br)cc2/C1=C\c1ccc(CN2C(=O)C(=O)c3ccccc32)o1`: the IC50 in assay [3] was 11.5 µM; in assay [2] it was 2.8 µM; in assay [4], > 100 µM; in assay [5], > 100 µM.

Regarding `Cc1ccc2c(c1)C(=O)C(=O)N2Cc1ccc(/C=C2/C(=O)Nc3ccc(C)cc32)o1`, in assay [2], the IC50 amounted to 5.7 µM.

For `O=Cc1ccc(CN2C(=O)C(=O)c3cc(Cl)ccc32)o1`, the IC50 in assay [2] was > 60 µM.

For `Cc1ccc2c(c1)/C(=C\c1ccc(CN3C(=O)C(=O)c4cc(Cl)ccc43)o1)C(=O)N2`, the IC50 in assay [2] came to 3.37 µM.

As to `COC(=O)[C@@H]1CCCCN1Cc1ccc(/C=C2/C(=O)Nc3ccc(F)cc32)o1`, in assay [1], the inhibition amounted to 14%.

For `O=C1Nc2ccc([N+](=O)[O-])cc2/C1=C\c1ccc(CN2C(=O)C(=O)c3ccccc32)o1`, the IC50 in assay [2] turned out to be 5.35 µM.

In the case of `O=C1Nc2ccccc2/C1=C\c1ccc(CN2C(=O)C(=O)c3cc(Cl)ccc32)o1`, the IC50 in assay [2] worked out at 4.59 µM.

For the compound `O=C1Nc2ccc(Cl)cc2/C1=C\c1ccc(CN2C(=O)C(=O)c3cc(Cl)ccc32)o1`, the IC50 in assay [3] was 18.8 µM; in assay [2], 2.3 µM; in assay [4] it was > 100 µM; in assay [5], > 100 µM.

As for `Cc1ccc2c(c1)C(=O)C(=O)N2Cc1ccc(/C=C2/C(=O)Nc3ccccc32)o1`, in assay [2], the IC50 came out at 6.71 µM.

Consider `O=C1Nc2ccc(Cl)cc2/C1=C\c1ccc(CN2C(=O)C(=O)c3ccccc32)o1`, for which, in assay [2], the IC50 was 4.41 µM.

Regarding `Cc1ccc2c(c1)C(=O)C(=O)N2Cc1ccc(/C=C2/C(=O)Nc3ccc(Br)cc32)o1`, in assay [2], the concentration for half-maximal inhibition (IC50) was determined as 5.23 µM.

As for `O=C1Nc2ccccc2/C1=C\c1ccc(CN2C(=O)C(=O)c3ccccc32)o1`, the IC50 in assay [2] worked out at 7.63 µM.
